Converted amounts (≈) assume the structure as drawn. “And” between values parts separate entries of the source, which are not always exact repeats. Identical values can stand only once.
What was measured:
[1] = In vivo pharmacokinetics in plasma; design: species or system mouse
Description: (§1) After treatment, mice were euthanized, and the plasma and brain were collected.
(§2) Male CD1 mice were supplied by the Laboratory Animal Service of the University of Granada (Granada, Spain) and housed in the Animal Facilities of the Center of Biomedical Investigation of the University of Granada. […] Calculations were performed using noncompartmental analysis of plasma data after intraperitoneal injection by means of PK Solver 2.0.
(§3) Basic PK parameters were calculated.

[2] = In vivo pharmacokinetics in brain; details: male, CD1, mouse, ip, mice, 10 mg/kg intraperitoneal
Description: as §1, §2, §3

mice = assay: Toxicity observation during the PK study; assay type: in vivo, mouse; details: single dose 10 mg/kg intraperitoneally
Description: Thus, two-month-old mice were treated with a single dose of 10 mg/kg intraperitoneally in ten groups (n = 3), for consecutive times: 0, 5, 15, 30 min and 1, 2, 4, 6, 8, 24 h. After treatment, mice were euthanized, and the plasma and brain were collected.

[3] = design: method as in ref 32, 33 = [32]; 32. Escolano C. Pallás M. Griñán-Ferré C. Abás S. Callado L.-F. García-Sevilla J.A. Synthetic I 2 Imidazoline Receptor Ligands for Prevention or Treatment of Human Brain Disorders Patent WO 2019/12185 || [33]; PMID 32150414; doi:10.1021/acs.jmedchem.9b02080; 33. Abás S. Rodríguez-Arévalo S. Bagán A. Griñán-Ferré C. Vasilopoulou F. Brocos-Mosquera I. Muguruza C. Pérez B. Molins E. Luque F.J. Bicyclic α-Iminophosphonates as High Affinity Imidazoline I 2 Rec; details: cited from earlier work
[4] = design: method as in ref 33 = [33]; PMID 32150414; doi:10.1021/acs.jmedchem.9b02080; 33. Abás S. Rodríguez-Arévalo S. Bagán A. Griñán-Ferré C. Vasilopoulou F. Brocos-Mosquera I. Muguruza C. Pérez B. Molins E. Luque F.J. Bicyclic α-Iminophosphonates as High Affinity Imidazoline I 2 Rec; details: 1% DMSO and 99% PBS buffer; cited from earlier work
[5] = design: method as in ref 33 = [33]; PMID 32150414; doi:10.1021/acs.jmedchem.9b02080; 33. Abás S. Rodríguez-Arévalo S. Bagán A. Griñán-Ferré C. Vasilopoulou F. Brocos-Mosquera I. Muguruza C. Pérez B. Molins E. Luque F.J. Bicyclic α-Iminophosphonates as High Affinity Imidazoline I 2 Rec; details: previous studies, cited from earlier work
adult rats = system: adult rats; design: method as in ref 33 = [33]; PMID 32150414; doi:10.1021/acs.jmedchem.9b02080; 33. Abás S. Rodríguez-Arévalo S. Bagán A. Griñán-Ferré C. Vasilopoulou F. Brocos-Mosquera I. Muguruza C. Pérez B. Molins E. Luque F.J. Bicyclic α-Iminophosphonates as High Affinity Imidazoline I 2 Rec; details: 20 and 35 mg/kg intraperitoneally, 1 and 2 h postinjection; cited from earlier work
SAMP8 murine model = details: cited from earlier work
5xFAD murine model = system: 5xFAD murine model; design: method as in ref 32, 33 = [32]; 32. Escolano C. Pallás M. Griñán-Ferré C. Abás S. Callado L.-F. García-Sevilla J.A. Synthetic I 2 Imidazoline Receptor Ligands for Prevention or Treatment of Human Brain Disorders Patent WO 2019/12185 || [33]; PMID 32150414; doi:10.1021/acs.jmedchem.9b02080; 33. Abás S. Rodríguez-Arévalo S. Bagán A. Griñán-Ferré C. Vasilopoulou F. Brocos-Mosquera I. Muguruza C. Pérez B. Molins E. Luque F.J. Bicyclic α-Iminophosphonates as High Affinity Imidazoline I 2 Rec; details: 5 mg/kg in drinking water, 4 weeks; cited from earlier work
SH-SY5Y cells [6] = assay: Cytotoxicity in SH-SY5Y cells (MTT); details: 24 h, 0.2 to 20 μM
[7] = Chemical stability in buffers at pH 2, 5 and 7.4
SH-SY5Y cells [8] = assay: Active caspase 3 in 6-OHDA-treated SH-SY5Y cells (immunodetection, Western blot); details: 1 μM, 16 h after 6-OHDA
[9] = male, CD1, mouse, ip, plasma, mice, 10 mg/kg intraperitoneal
[10] = plasma, mice, 10 mg/kg intraperitoneal

For CCOP(=O)(OCC)[C@]1(c2ccccc2)N=C[C@H]2C(=O)N(c3ccc(F)c(Cl)c3)C(=O)[C@H]21 (racemic) [B06, diethyl (1RS,3aSR,6aSR)-5-(3-chloro-4-fluorophenyl)-4,6-dioxo-1-phenyl-1,3a,4,5,6,6a-hexahydropyrrolo[3,4-c]pyrrole-1-phosphonate], the AUC(0-inf) [1, 9] was 3050 ng·h/mL, the Tmax [1, 9] was 0.25 h and the Cmax ([1]; male, CD1, mouse, ip, plasma, mice, 10 mg/kg intraperitoneal, single dose) was 950 ± 624 ng/mL. The AUC(0-t) ([1]; male, CD1, mouse, ip, plasma, mice, 10 mg/kg intraperitoneal, read-out: AUC0–1440 (converted)) was 2950 ng·h/mL, the half-life ([1]; male, CD1, mouse, plasma, ip, 10 mg/kg, mice, 10 mg/kg intraperitoneal) was 5.21 h and the “Cl (plasma clearance)” value [1, 10] was 0.054 ± 0.011 (mg/kg)/(μg/mL). The “Vz (volume of distribution)” value [1, 10] was 24.56 ± 4.74 (mg/kg)/(μg/mL), the t1/2 ([1]; plasma, mice, 10 mg/kg intraperitoneal, 10 mg/kg) was 5.2135 h and the “maximum mean concentration in plasma as % of the drug administered” value ([1]; single dose intraperitoneally) was at most 1%. The AUC(0-inf) ([2]; in vivo) was 3310 ng·h/mL, the Cmax ([2]; in vivo) was 128 ± 66 ng/mL and the Tmax ([2]; in vivo) was 0.25 h. For the same molecule, the AUC(0-t) ([2]; in vivo, read-out: AUC0–480 (converted)) was 2320 ng·h/mL, the half-life [2] was 4.28 h and the “toxicity in organs or tissues, de visu observation after euthanasia” value (mice) was “no toxicity in organs or tissues”. For the same molecule, the “toxicity in the animals” value (mice; up to 24 h) was “not toxicity in any of the animals”, the “Pe value in PAMPA (BBB permeation)” value [3] was “well above the threshold established for high BBB permeation” and the solubility [4] was 92 µM (≈ 44.1 µg/mL). The “mice microsomal percentage remanent” value ([5]; 60 min) was 65.08%, the “t ½ in mice microsomes” value [5] was 1.529 h and the “effect on body temperature” value (adult rats) was “hypothermia”. The “effect on cognition and behaviour” value (SAMP8 murine model) was “improving cognition and ameliorating anxiety-like behaviour”, the effect on cognition (5xFAD murine model) was “improving cognition and ameliorating the neurodegenerative condition” and the “cytotoxic effect on cell cultures (MTT)” value (SH-SY5Y cells [6]) was “None of the concentrations used were cytotoxic”. For the same molecule, the “% B06 Remaining” value ([7]; pH 2, 37 °C, 0 min) was 100 ± 8.84%, the “% B06 Remaining” value ([7]; pH 2, 37 °C, 5 min) was 104 ± 9.81% and the “% B06 Remaining” value ([7]; pH 2, 37 °C, 15 min) was 98 ± 11.30%. The “% B06 Remaining” value ([7]; pH 2, 37 °C, 30 min) was 106 ± 9.97%, the “% B06 Remaining” value ([7]; pH 2, 37 °C, 60 min) was 112 ± 11.2% and the “% B06 Remaining” value ([7]; pH 2, 37 °C, 120 min) was 96 ± 13.6%. For the same molecule, the “chemical stability” value ([7]; pH 2, up to 120 min) was “stable at pH 2”, the “chemical stability” value ([7]; pH 5) was “stable up to 1 h” and the “% B06 Remaining” value ([7]; pH 5, 37 °C, 0 min) was 100 ± 3.3%. For the same molecule, the “% B06 Remaining” value ([7]; pH 5, 37 °C, 5 min) was 97 ± 6.5%, the “% B06 Remaining” value ([7]; pH 5, 37 °C, 15 min) was 100 ± 3.9% and the “% B06 Remaining” value ([7]; pH 5, 37 °C, 30 min) was 87 ± 11.3%. For the same molecule, the “% B06 Remaining” value ([7]; pH 5, 37 °C, 60 min) was 98 ± 10.1%, the “% B06 Remaining” value ([7]; pH 5, 37 °C, 120 min) was 75 ± 8.5% and the “% of the compound that suffered structural changes” value ([7]; pH 5, between 1 h and 2 h) was 25%. The “% B06 Remaining” value ([7]; pH 7.4, 37 °C, 0 min) was 100 ± 2.9%, the “% B06 Remaining” value ([7]; pH 7.4, 37 °C, 15 min) was 77 ± 3.8% and the “% B06 Remaining” value ([7]; pH 7.4, 37 °C, 30 min) was 75% and 75 ± 5.6%. For the same molecule, the “% B06 Remaining” value ([7]; pH 7.4, 37 °C, 60 min) was 53 ± 6.4%, the “% B06 Remaining” value ([7]; pH 7.4, 37 °C, 120 min) was 19% and 19 ± 1.9% and the “% of the compound transformed” value ([7]; pH 7.4, 15 min) was 25%. The “effect on 6-OHDA-induced increase of cells expressing active caspase 3” value (SH-SY5Y cells [8]) was “this effect was reversed by the treatment with B06”.
